Our source for the IC50 and sialidase inhibitory activity values is patent US5948816A, “4-substituted-2,7-dideoxy-7-fluoro-2,3-didehydro-sialic acid compounds” (priority 1996, dated 1999).

Counter-ions that a name gives are not always drawn.

For the experiment, the target named is sialidase (Influenza A virus, UniProt P03468). In words: Influenza virus sialidase inhibition (free sialic acid released from α 2-3 sialyl-lactose, pH 5.2, 37° C., densitometry). In kind it is biochemical, Influenza virus A/PR/8/34. The note with it: for IC50: α 2-3 sialyl-lactose substrate, pH 5.2, 37° C., 10 minutes.
Chain of sialidase (P03468 whole entry): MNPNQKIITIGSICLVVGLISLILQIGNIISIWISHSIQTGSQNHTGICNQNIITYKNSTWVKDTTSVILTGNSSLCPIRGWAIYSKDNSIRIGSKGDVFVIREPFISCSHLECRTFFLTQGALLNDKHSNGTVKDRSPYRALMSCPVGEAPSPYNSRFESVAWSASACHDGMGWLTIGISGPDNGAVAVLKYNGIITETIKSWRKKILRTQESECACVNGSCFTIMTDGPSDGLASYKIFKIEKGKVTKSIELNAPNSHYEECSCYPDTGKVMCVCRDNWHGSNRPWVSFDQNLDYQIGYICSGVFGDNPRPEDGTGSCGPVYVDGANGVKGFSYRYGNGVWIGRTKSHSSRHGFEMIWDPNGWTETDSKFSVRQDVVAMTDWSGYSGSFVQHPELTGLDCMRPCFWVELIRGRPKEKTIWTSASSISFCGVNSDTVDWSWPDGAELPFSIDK

Regarding `CC(=O)N[C@H]1[C@H]([C@H](O)[C@H](O)CO)OC(C(=O)O)=C[C@@H]1N` [4-Amino-2,3-didehydrosialic acid, 4-amino-2,3-didehydrosialic acid], the concentration for half-maximal inhibition (IC50) came out at 1500 nM.
As for `CC(=O)N[C@H]1[C@H]([C@H](F)[C@H](O)CO)OC(C(=O)O)=C[C@@H]1N` [5-Acetamide-4-amino-2,6-anhydro-7-fluoro-3,4,5,7-tetradeoxy-D-glycero-D-galacto-non-2-enonic acid Sodium salt], the sialidase inhibitory activity result is “very potent” and the IC50 turned out to be 500 nM.
Turning to `CC(=O)N[C@H]1[C@H]([C@H](F)[C@H](O)CO)OC(C(=O)O)=C[C@@H]1O` [7-Fluoro-2,3-didehydrosialic acid], the half-inhibitory concentration (IC50) amounted to 2900 nM.

As usually defined, the IC50 is the point on the concentration scale where inhibition reaches its midpoint.
